Test results from patent publication US11186566B2, “Modulator of cystic fibrosis transmembrane conductance regulator, pharmaceutical compositions, methods of treatment, and process for making the modulator” (Vertex Pharmaceuticals Incorporated, priority 2016, dated 2021).
Where two headings read alike, the source gives them in different places.

Columns and labels:
[1] = molecular target: Human Serum Albumin (HSA) (Homo sapiens (Human), UniProt P02768); assay: Chromatographic determination of Human Serum Albumin (HSA) binding; type: in vitro ADME; settings: ChiralPak HSA column, retention time converted to % HSA
Experimental: 5B. Chromatographic Determination of Human Serum Albumin (HSA) Assay
Chromatographic determination of Human Serum Albumin (HSA) values was performed on a UPLC-MS system using a ChiralPak® HSA column (p/n: 58469AST) from Sigma Aldrich. Mobile phase A consisted of 50 mM ammonium acetate buffer in water adjusted to pH=7.4, and mobile phase B was 2-propanol. The column compartment was kept at constant temperature of 30° C. Determination of retention time on the HSA column was performed by injecting […] of 0.5 mM of compound (in DMSO) using a linear gradient from 0%-30% B in 2.5 minutes, followed by a hold at 30% B for 2 minutes, and the final equilibration step from […] in 1.5 minutes, for a total run time of 6 minutes. Flow rate was kept constant throughout the gradient and set to 1.8 mL/min. Compound retention time on the HSA column was converted to % HSA values according to a previously published protocol (Valko, et. al, 2003) correlating column retention times to standard plasma protein binding (PPB) values obtained from dialysis experiments. HSA data for certain compounds are summarized below in Table 8 below.
Valko, K., Nunhuck, S., Bevan, C., Abraham, M. H., Reynolds, D. P. Fast Gradient HPLC Method to Determine Compounds Binding to Human Serum Albumin. Relationships with Octanol/Water and Immobilized Artificial Membrane Lipophilicity. J. of Pharm. Sci. 2003, 92, 2236-2248.

human PXR = human PXR (Homo sapiens (Human), UniProt O75469); assay: PXR assay (PXR mediated CYP3A4 induction, DPX-2 cell line); type: cell-based; settings: DPX-2 cells, 48 hours, 0.1 to 60 μM
Experimental: 5D. Experimental Protocol for PXR Assay
The propensity for PXR mediated CYP3A4 induction is assessed using the DPX-2 cell line in vitro. This cell line, which has been licensed from Puracyp Inc. was derived from HepG2 cells and has been stably transfected with genes encoding human PXR as well as a modified luciferase reporter linked to the CYP3A4 promoter region and related distal and proximal enhancers.
The assay is run in 384 well format and each test article is administered in 11 doses ranging from 0.1 to 60 μM. On day 1, DPX-2 cells which have previously been expanded in-house and cryopreserved are thawed and seeded in tissue culture plates. The following day, media is changed and cells are cultured in media containing test article, vehicle control or the positive control compound, the clinically validated CYP3A4 inducer rifampicin. Cells are cultured in the presence of test article for 48 hours and then cell viability is assessed using fluorescence based assay (Cell Titer-Fluor, Promega) with an EnVision Plate Reader (PerkinElmer). Subsequently, CYP3A4 transactivation, which is proportional to luciferase activity, is measured by reading luminescense using the Promega One-Glo reagent system using the same plate reader.
Data processing within the Genedata software package allows reporting of max fold induction compared to vehicle control, an EC50 value for CYP3A4 inducers and an 11 point-dose response curve.

F508del-CFTR [2] = molecular target: T1, F508del-CFTR (Homo sapiens (Human), UniProt P13569, DEL508-508); assay: Membrane potential optical (fluorescent voltage sensing dye, FLIPR III) HTS assay for F508del-CFTR modulators; type: cell-based
Outline: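 NIH3T3 mouse fibroblasts stably expressing F508del-CFTR were seeded on matrigel-coated plates for 18–24 h at 37 °C. For correction assays they were cultured with or without compound for that period. Membrane potential was read on FLIPR III with voltage-sensing dyes, using a pH 7.4 NaCl/HEPES bath and a chloride-free gluconate substitute solution.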

Rat IV and PO PK studies = type: in vivo, male Sprague-Dawley rats; settings: male, Sprague-Dawley, plasma; for bioavailability / AUC: 3 mg/kg, oral; for bioavailability: read-out: Rat po % F; for clearance: intravenous, 3.0 mg/kg, read-out: Rat iv CL
Experimental: 5C. Experimental Protocol for Rat IV and PO PK Studies
[…] […] Analyses of plasma and dose preparations were performed using LC/MS/MS.
Plasma concentration-time profiles of the tested compound in Sprague-Dawley rats at scheduled (nominal) sampling times were analyzed by noncompartmental pharmacokinetic methods using PK function within Watson LIMS software, Version 7.4.2 (Thermo Scientific Inc, Waltham, Mass.). AUC values were calculated using the linear trapezoidal rule.

F508del-CFTR [3] = molecular target: T1, F508del-CFTR; assay: Ussing chamber chloride transport experiments in HBE cells; type: cell-based; settings: HBE cells
Experimental: Ussing chamber experiments were performed on polarized airway epithelial cells expressing F508del to further characterize the F508del modulators identified in the optical assays. Non-CF and CF airway epithelia were isolated from bronchial tissue, cultured as previously described (Galietta, L. J. V., Lantero, S., Gazzolo, A., Sacco, O., Romano, L., Rossi, G. A., & Zegarra-Moran, O. (1998) In Vitro Cell. Dev. Biol. 34, 478-481), and plated onto Costar® Snapwell™ filters that were precoated with NIH3T3-conditioned media. After four days the apical media was removed and the cells were grown at an air liquid interface for >14 days prior to use. […] CF-HBE were isolated from patients homozygous for […] or compound heterozygous for F508del with an different disease causing mutation on the other allele.
HBE grown on Costar® Snapwell™ cell culture inserts were mounted in an Ussing chamber (Physiologic Instruments, Inc., San Diego, Calif.), and the transepithelial resistance and short-circuit current in the presence of a basolateral to apical Cl^− gradient (ISC) were measured using a voltage-clamp system (Department of Bioengineering, University of Iowa, Iowa). Briefly, HBE were examined under voltage-clamp recording conditions (Vhold=0 mV) at 37° C. The basolateral solution contained (in mM) 145 NaCl, 0.83 K2HPO4, 3.3 KH2PO4, 1.2 MgCl2, 1.2 CaCl2, 10 Glucose, 10 HEPES (pH adjusted to 7.35 with NaOH) and the apical solution contained (in mM) 145 NaGluconate, 1.2 MgCl2, 1.2 CaCl2, 10 glucose, 10 HEPES (pH adjusted to 7.35 with NaOH).
Typical protocol utilized a basolateral to apical membrane Cl^− concentration gradient. To set up this gradient, normal ringers was used on the basolateral membrane, whereas apical NaCl was replaced by equimolar sodium gluconate (titrated to pH 7.4 with NaOH) to give a large Cl^− concentration gradient across the epithelium. Modulators were added either to the basolateral side […] to assay or to the apical side during the assay. Forskolin (10 μM) was added to the apical side during the assay to stimulate CFTR-mediated Cl^− transport. […]

[4] = F508del NIH 3T3 cells, assay 5A-A1, read-out: CFTRdF508 EC50
[5] = Table 9, read-out: CFTR dF508 EC50

Sequence of human PXR (O75469 whole entry): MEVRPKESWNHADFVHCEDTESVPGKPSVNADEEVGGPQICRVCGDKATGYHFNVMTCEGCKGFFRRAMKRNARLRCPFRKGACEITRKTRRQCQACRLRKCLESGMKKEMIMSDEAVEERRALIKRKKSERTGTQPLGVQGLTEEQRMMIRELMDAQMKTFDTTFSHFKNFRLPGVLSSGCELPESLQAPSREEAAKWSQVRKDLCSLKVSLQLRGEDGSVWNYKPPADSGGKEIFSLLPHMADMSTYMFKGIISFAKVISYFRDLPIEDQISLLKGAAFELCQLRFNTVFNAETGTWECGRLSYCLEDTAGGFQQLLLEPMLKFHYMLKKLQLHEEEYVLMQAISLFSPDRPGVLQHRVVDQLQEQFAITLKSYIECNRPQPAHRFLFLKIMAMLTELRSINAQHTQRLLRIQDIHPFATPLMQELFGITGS
T1 sequence (P13569 other isoform, or with tags, fused parts or gaps del F508-F508): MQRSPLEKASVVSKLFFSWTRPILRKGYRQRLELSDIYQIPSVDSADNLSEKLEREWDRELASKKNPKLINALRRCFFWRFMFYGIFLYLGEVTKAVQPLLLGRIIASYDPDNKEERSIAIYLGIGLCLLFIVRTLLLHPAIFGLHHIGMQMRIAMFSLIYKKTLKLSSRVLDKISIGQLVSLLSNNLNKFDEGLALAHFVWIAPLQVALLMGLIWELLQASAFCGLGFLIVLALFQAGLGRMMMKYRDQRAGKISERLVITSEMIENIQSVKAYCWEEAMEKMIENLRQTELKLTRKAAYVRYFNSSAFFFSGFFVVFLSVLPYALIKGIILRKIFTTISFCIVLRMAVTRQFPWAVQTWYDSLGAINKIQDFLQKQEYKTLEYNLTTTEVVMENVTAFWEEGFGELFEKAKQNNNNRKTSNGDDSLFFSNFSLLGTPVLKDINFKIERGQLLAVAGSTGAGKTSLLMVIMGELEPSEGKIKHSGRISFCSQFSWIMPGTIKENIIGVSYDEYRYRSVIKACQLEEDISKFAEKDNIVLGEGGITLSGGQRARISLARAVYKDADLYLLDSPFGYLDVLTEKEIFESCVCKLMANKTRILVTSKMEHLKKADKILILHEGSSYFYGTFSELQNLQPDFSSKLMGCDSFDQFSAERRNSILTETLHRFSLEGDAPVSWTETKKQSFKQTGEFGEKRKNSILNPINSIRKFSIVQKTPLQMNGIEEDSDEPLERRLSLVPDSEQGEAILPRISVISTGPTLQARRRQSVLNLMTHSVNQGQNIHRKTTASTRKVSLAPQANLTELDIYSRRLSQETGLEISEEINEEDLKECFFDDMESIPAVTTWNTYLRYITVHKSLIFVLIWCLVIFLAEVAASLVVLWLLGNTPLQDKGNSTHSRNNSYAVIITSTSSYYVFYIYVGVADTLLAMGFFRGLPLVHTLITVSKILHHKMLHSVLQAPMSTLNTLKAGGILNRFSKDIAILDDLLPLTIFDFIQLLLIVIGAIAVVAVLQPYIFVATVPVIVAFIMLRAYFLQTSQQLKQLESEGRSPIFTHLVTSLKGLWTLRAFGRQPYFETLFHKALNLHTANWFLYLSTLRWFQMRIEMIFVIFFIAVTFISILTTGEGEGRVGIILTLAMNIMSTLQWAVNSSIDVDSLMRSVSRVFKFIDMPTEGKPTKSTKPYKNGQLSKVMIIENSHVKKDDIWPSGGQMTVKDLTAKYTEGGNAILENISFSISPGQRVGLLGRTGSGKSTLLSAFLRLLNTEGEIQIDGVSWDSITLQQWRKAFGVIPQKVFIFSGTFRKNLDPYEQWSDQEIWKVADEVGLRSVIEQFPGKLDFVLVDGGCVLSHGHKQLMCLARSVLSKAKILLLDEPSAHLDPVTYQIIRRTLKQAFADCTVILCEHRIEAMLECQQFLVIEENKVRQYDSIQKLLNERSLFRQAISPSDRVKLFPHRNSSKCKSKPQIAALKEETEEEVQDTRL
Sequence of Human Serum Albumin (HSA) (P02768 25-609): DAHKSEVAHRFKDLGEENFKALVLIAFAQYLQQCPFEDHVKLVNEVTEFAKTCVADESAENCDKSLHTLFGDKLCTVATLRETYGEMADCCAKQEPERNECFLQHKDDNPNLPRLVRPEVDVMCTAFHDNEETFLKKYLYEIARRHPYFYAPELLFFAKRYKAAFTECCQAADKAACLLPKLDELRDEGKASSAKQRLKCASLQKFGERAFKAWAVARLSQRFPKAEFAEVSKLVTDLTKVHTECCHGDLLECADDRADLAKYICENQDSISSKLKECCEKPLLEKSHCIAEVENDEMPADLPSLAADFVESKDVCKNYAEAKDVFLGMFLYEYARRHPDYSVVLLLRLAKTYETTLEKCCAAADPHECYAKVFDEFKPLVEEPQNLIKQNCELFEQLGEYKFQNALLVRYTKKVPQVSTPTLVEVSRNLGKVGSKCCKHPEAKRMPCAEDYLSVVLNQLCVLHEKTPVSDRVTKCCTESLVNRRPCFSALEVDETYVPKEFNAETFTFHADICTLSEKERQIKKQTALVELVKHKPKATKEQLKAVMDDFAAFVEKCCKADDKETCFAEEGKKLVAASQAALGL

Row | SMILES | HSA binding [1] [%] | PXR Max Induction (% of rifampicin) (human PXR) | EC50 (F508del-CFTR [2]; [4]) [nM] | EC50 (F508del-CFTR [2]; [5]) [nM] | bioavailability (Rat IV and PO PK studies) [%] | clearance (Rat IV and PO PK studies) [mL/min/kg] | AUC (Rat IV and PO PK studies) [ng·h/mL] | potentiation of F508del-CFTR delivered to the cell surface by Compound I alone or in combination with Compound II (F508del-CFTR [3])
1 | C[C@@H]1CN(c2nc(-n3ccc(OCC4(C(F)(F)F)CC4)n3)ccc2C(=O)NS(=N)(=O)c2ccccc2)C(C)(C)C1 (mixture of isomers) | 98.1 | – | – | – | – | – | – | –
2 | C[C@@H]1CN(c2nc(-n3ccc(OCC4(C(F)(F)F)CC4)n3)ccc2C(=O)NS(=N)(=O)c2ccccc2)C(C)(C)C1 (single isomer, unassigned) [drawing 340] | 98.4 | – | – | – | – | – | – | –
3 | Cc1ccc(S(=O)(=O)NC(=O)c2ccc(-n3ccc(OCC4(C(F)(F)F)CC4)n3)nc2N2C[C@@H](C)CC2(C)C)cc1 [Compound 24, N-(p-Tolylsulfonyl)-6-[3-[[1-(trifluoromethyl)cyclopropyl]methoxy]pyrazol-1-yl]-2-[(4S)-2,2,4-trimethylpyrrolidin-1-yl]pyridine-3-carboxamide] | – | 9 % of rifampicin | < 100 | 70 | 98 | 2.6 | 20000 | –
4 | C[C@@H]1CN(c2nc(-n3ccc(OCC4(C(F)(F)F)CC4)n3)ccc2C(=O)NS(=N)(=O)c2ccccc2)C(C)(C)C1 (single isomer, unassigned) [drawing 339] | 97.9 | – | – | – | – | – | – | –
5 | COc1ccccc1S(=O)(=O)NC(=O)c1ccc(-n2ccc(OCC3(C(F)(F)F)CC3)n2)nc1N1C[C@@H](C)CC1(C)C [Comp. 53, N-(2-methoxyphenyl)sulfonyl-6-[3-[[l-(trifluoromethyl)cyclopropyl]methoxy]pyrazol-1-yl]-2-[(4S)-2,2,4-trimethylpyrrolidin-1-yl]pyridine-3-carboxamide] | – | 39 % of rifampicin | < 100 | 40 | 98 | 2.3 | 13700 | –
6 | C[C@@H]1CN(c2cc(-n3ccc(OCCC4(C(F)(F)F)CC4)n3)ncc2C(=O)NS(=O)(=O)c2ccccc2)C(C)(C)C1 [Comp. 44, (S)—N-(phenylsulfonyl)-6-(3-(2-(1-(trifluoromethyl)cyclopropyl)ethoxy)-1H-pyrazol-1-yl)-4-(2,2,4-trimethylpyrrolidin-1-yl)nicotinamide] | – | 18 % of rifampicin | 100 to 1000 | 620 | 81 | 5 | 8500 | –
7 | Cc1ccccc1S(=O)(=O)NC(=O)c1ccc(-n2ccc(OCC3(C(F)(F)F)CC3)n2)nc1N1C[C@@H](C)CC1(C)C [Compound 23, N-(o-Tolylsulfonyl)-6-[3-[[1-(trifluoromethyl)cyclopropyl]methoxy]pyrazol-1-yl]-2-[(4S)-2,2,4-trimethylpyrrolidin-1-yl]pyridine-3-carboxamide] | – | 22 % of rifampicin | < 100 | 30 | 69 | 2.7 | 12500 | –
8 | C[C@@H]1CN(c2nc(-n3ccc(OCC4(C(F)(F)F)CC4)n3)ccc2C(=O)NS(=O)(=O)c2ccccc2)C(C)(C)C1 [Compound 14, N-(Benzenesulfonyl)-6-[3-[[1-(trifluoromethyl)cyclopropyl]methoxy]pyrazol-1-yl]-2-[(4S)-2,2,4-trimethylpyrrolidin-1-yl]pyridine-3-carboxamide] | – | 19 % of rifampicin | < 100 | 40 | 58 | 2 | 14700 | –
9 | C[C@@H]1CN(c2nc(-n3ccc(OCC4(C(F)(F)F)CC4)n3)ccc2C(=O)NS(=O)(=O)c2ccc(O)cc2)C(C)(C)C1 [Compound 22, N-(4-Hydroxyphenyl)sulfonyl-6-[3-[[1-(trifluoromethyl)cyclopropyl]methoxy]pyrazol-1-yl]-2-[(4S)-2,2,4-trimethylpyrrolidin-1-yl]pyridine-3-carboxamide] | – | 4 % of rifampicin | 100 to 1000 | 120 | 31 | 6.7 | 3600 | –
10 | C[C@@H]1CN(c2nc(-n3ccc(OCC4(C(F)(F)F)CC4)n3)ccc2C(=O)NS(=O)(=O)c2ccccc2)C(C)(C)C1 [drawing 337] | 99.1 | – | – | – | – | – | – | –
11 | CC(C)(C)c1cc(C(C)(C)C)c(NC(=O)c2c[nH]c3ccccc3c2=O)cc1O [Compound III, N-(5-hydroxy-2,4-di-tert-butyl-phenyl)-4-oxo-1H-quinoline-3-carboxamide, reference compound] | – | – | – | – | – | – | – | potentiated
